Results as given in patent US20250319162A1, “METHODS AND MATERIALS FOR TREATING OBESITY” (Regents of the University of California, priority 2024, published 2025).

Assays:
[1] = test system: Drp1 S637 phosphorylation in human primary adipocyte cell line SGBS; experiment: Immunoblot of phospho-Drp1 (S637) in human primary adipocytes (SGBS) after forskolin; format: cell-based; conditions: SGBS cells; pretreated with 50 μM RBC8 or DMSO for 30 min, then 20 μM forskolin
Experimental: FIGS. 5A-5J. […] FIG. 5A: Quantification of phospho-Drp1 (S637) and total Drp1 in iWAT of HFD-fed Rala^f/f (n=10) and Rala^AKO (n=13) mice; P=0.0001. FIGS. 5B and 5C: Immunoblotting (FIG. 5B) and quantification (FIG. 5C) of phospho-Drp1 (S637) and total Drp1 in immortalized adipocytes (n=4 biological samples); P=0.0125 (FIG. 5C). Adipocytes were treated with 20 μM forskolin (Fsk) for indicated time. FIGS. 5D and 5E: Immunoblotting (FIG. 5D) and quantification of phospho-Drp1 (S637) and total Drp1 in human primary adipocytes (SGBS) (n=4 biological samples). […] Significance in correlation was assessed by Spearman's correlation test (FIGS. 5H, and 5J). […]
Tissues or cells were lysed or homogenized in RIPA buffer with freshly added Halt Protease and Phosphatase Inhibitor Cocktail (Thermo Fisher). […] Cleared supernatants were collected and concentrations were determined with a BCA protein assay kit (Pierce) and iTecan plate reader for quantification. […] Individual 10 proteins were detected with the specific antibodies (OXPHOS ab110413, β-tubulin 2146S, phospho-Drp1 (Ser637) 4867S, phospho-HSL (Ser660) 45804S, HSL 4107S, MYC 2276S, Drp1 8570S, phosphor-AMPK (Thr172) 2535S, AMPK 5831S, RalA BD610221, β-actin 66009-1-Ig, Flag 66008-4-Ig, GFP 66002-1-Ig, and Sec512751-1-AP). […] Bands were quantified with ImageStudio or ImageJ.

[2] = test system: Drp1 S637 phosphorylation in 3T3-L1 adipocytes; experiment: Immunoblot of phospho-Drp1 (S637) in 3T3-L1 adipocytes after forskolin; format: cell-based, murine; conditions: pretreated with 50 μM RBC8 or DMSO for 30 min, then 5 μM forskolin
Text: Immunoblotting of phospho-Drp1 S637, total Drp1 and β-Tubulin in iWAT of HFD-fed Rala^f/f (n=10) and Rala^AKO (n=13) mice. FIGS. 12B and 12C: Immunoblotting (FIG. 12B) and quantification (FIG. 12C) of phospho-Drp1(S637), total Drp1, and β-Tubulin in eWAT of HFD-fed Rala^f/f (n=8) and Rala^AKO (n=12) mice. FIGS. 12D and 12E: Immunoblotting (FIG. 12D) and quantification (FIG. 12E) of phospho-Drp1(S637), total Drp1 and β-Actin in iWAT of CD-fed mice. Non-fasted Rala^f/f (vehicle n=3, CL n=4) and Rala^AKO (vehicle n=3, CL n=5) mice fed with CD were i.p. injected with 1 mg/kg CL for 30 min. P=0.0054, P=0.0135 (FIG. 12E). FIGS. 12F and 12G: Immunoblotting (FIG. 12F) and quantification (FIG. 12G) of phospho-Drp1(S637), total Drp1, RalA, and β-Actin in fully differentiated primary adipocytes (n=4 biological samples). P=0.0085, P=0.0046 (FIG. 12G). […] FIGS. 12H and 12I: Immunoblotting (FIG. 12H) and quantification (FIG. 12I) of phospho-Drp1(S637), total Drp1, RalA, and β-Actin in immortalized adipocytes (n=4 biological samples). […] FIGS. 12J and 12K: Immunoblotting (FIG. 12J) and quantification (FIG. 12K) of phospho-Drp1(S637), total Drp1, and β-Actin in 3T3-L1 adipocytes (n=4 biological samples). […] FIGS. 12M and 12N: Quantification of phospho-HSL (S660) and HSL in primary (FIG. 12M) and immortalized adipocytes (FIG. 12N) treated with CL for indicated time (n=4 biological samples). […]

COc1ccc(OC)c(C2C(C#N)=C(N)Oc3n[nH]c(-c4ccc5ccccc5c4)c32)c1 (centres unmarked) [RBC8]
forskolin-stimulated Drp1 S637 phosphorylation [1]: increased forskolin-stimulated Drp1 S637 phosphorylation
forskolin-stimulated Drp1 S637 phosphorylation [2]: significantly increased forskolin-stimulated Drp1 S637 phosphorylation
